Assay results from patent publication US7632861B2, “Substituted heterocyclic ethers and their use in CNS disorders” (Bristol-Myers Squibb Company, priority 2007, dated 2009).
pIC50: −log10 of the molar value.

What was measured:
[1] = target: T1, NK-1 (Homo sapiens, UniProt P25103); assay: NK1 radioligand binding assay ([125I]Substance P, U373 cell membranes); details: 1 hour at room temperature
T1 construct: endogenous in cells; host or cells: U373 cells (crude membranes)
Procedure: (§1) NK-1 Binding assay. Crude membrane suspensions were prepared for the NK1 and SERT radioligand binding assays from U373 cells or recombinant HEK-293 cells expressing hSERT, respectively. Cells were harvested from T-175 flasks as follows. The medium is removed from the flasks and the cells rinsed with HBSS without Ca and without Mg. The cells are then incubated for 5-10 minutes in 10 mM Tris-Cl, pH 7.5, 5 mM EDTA before the cells are lifted with a combination of pipetting and scraping, as needed. To prepare membranes, the cell suspension is collected into centrifuge bottles and homogenized for 30 seconds with a Polytron homogenizer. The suspension is centrifuged for 30 min @ 32,000×g, 4° C., then the supernatant is decanted and the pellet resuspended and homogenized in 50 mM Tris-Cl, pH 7.5, 1 mM EDTA for 10 seconds. The suspension is then centrifuged again for 30 min @ 32,000×g, 4° C. The supernatant is decanted and the pellet resuspended in 50 mM Tris-Cl, pH 7.5, 1 mM EDTA and briefly homogenized. A Bradford assay (Bio-rad) is performed and the membrane preparation diluted to 2 mg/ml with 50 mM Tris-Cl, pH 7.5, 1 mM EDTA. Aliquots are prepared, and then frozen and stored at −80° C.
NK1 radioligand binding assay. Compounds are dissolved in 100% DMSO at a concentration 100× the desired highest assay concentration, serially diluted 1:3 in 100% DMSO, and 0.6 ul/well of each solution is dispensed to a Nunc polypropylene, round bottom, 384 well plate. 100% inhibition is defined with 0.6 ul/well of 1 mM L-733,060 (Sigma L-137) dissolved in DMSO. 30 ul/well of a 2×U373 membrane preparation (267 ug/ml in 100 mM Tris-Cl, pH 7.5, 6 mM MgCl2, 0.2% (v/v) Sigma mammalian protease inhibitor cocktail (Sigma P-8340), and 4 ug/ml chymostatin, Sigma C-7268) and 30 ul/well of a 2×radioligand solution (400 pM [^125I]Substance P (Perkin Elmer NEX-190) in 1% (w/v) BSA (Sigma A-2153), 0.1 mg/ml bacitracin, Sigma B-0125) are added to the well and the reaction incubated for 1 hour at room temperature. The contents of the assay plate are then transferred to a Millipore MultiscreenHTS GF/B filter plate which has been pretreated with 0.5% PEI for at least one hour. The plate is vacuum filtered and washed with 7 washes of 100 ul/well of 20 mM Tris-Cl, pH 7.5, 0.5% (w/v) BSA chilled to 4° C. The filtration and washing is completed in less than 90 s. The plates are air-dried overnight, 12 ul/well of MicroScint scintillation fluid added, and the plates counted in a Trilux.
(§2) Data analysis. The raw data are normalized to percent inhibition using control wells defining 0% (DMSO only) and 100% (selective inhibitor) inhibition which are run on each plate. Each plate is run in triplicate, and the concentration response curve thus generated is fit using the four-parameter dose response equation, Y=Bottom+(Top-Bottom)/(1+10^((LogIC50-X)*HillSlope)) in order to determine the IC50 value for each compound. The radioligand concentration chosen for each assay corresponds to the Kd concentration determined through saturation binding analysis for each assay.

[2] = target: T2, hSERT (Homo sapiens, UniProt P31645); assay: SERT radioligand binding assay ([125I]RTI-55, HEK-hSERT membranes); details: [125I]RTI-55, 1 hour at room temperature
T2 construct: expressed in transfected cells; host or cells: HEK-293 cells (crude membranes)
Procedure: as §1
SERT radioligand binding assay. Compounds are dissolved in 100% DMSO at a concentration 100× the desired highest assay concentration, serially diluted 1:3 in 100% DMSO, and 0.4 ul/well of each solution is dispensed to a Nunc polypropylene, round bottom, 384 well plate. 100% inhibition is defined with 0.4 ul/well of 1 mM fluoxetine (Sigma F-132) dissolved in DMSO. 20 ul/well of a 2×HEK-hSERT membrane preparation (15 ug/ml in 50 mM Tris-Cl, pH 7.5, 120 mM NaCl, 5 mM KCl) and 20 ul/well of a 2×radioligand solution (520 pM [^125I]RTI-55 (Perkin-Elmer NEX-272) in 50 mM Tris-Cl, pH 7.5, 120 mM NaCl, 5 mM KCl) are added to each well and the reaction incubated for 1 hour at room temperature. The contents of the assay plate are then transferred to a Millipore MultiscreenHTS GF/B filter plate which has been pretreated with 0.5% PEI for at least one hour. The plate is vacuum filtered and washed with 7 washes of 100 ul/well of 50 mM Tris-Cl, pH 7.5, 120 mM NaCl, 5 mM KCl chilled to 4° C. The filtration and washing is completed in less than 90 s. The plates are air-dried overnight, 12 ul/well of MicroScint scintillation fluid added, and the plates counted in a Trilux.
as §2

T1 sequence (P25103 whole entry): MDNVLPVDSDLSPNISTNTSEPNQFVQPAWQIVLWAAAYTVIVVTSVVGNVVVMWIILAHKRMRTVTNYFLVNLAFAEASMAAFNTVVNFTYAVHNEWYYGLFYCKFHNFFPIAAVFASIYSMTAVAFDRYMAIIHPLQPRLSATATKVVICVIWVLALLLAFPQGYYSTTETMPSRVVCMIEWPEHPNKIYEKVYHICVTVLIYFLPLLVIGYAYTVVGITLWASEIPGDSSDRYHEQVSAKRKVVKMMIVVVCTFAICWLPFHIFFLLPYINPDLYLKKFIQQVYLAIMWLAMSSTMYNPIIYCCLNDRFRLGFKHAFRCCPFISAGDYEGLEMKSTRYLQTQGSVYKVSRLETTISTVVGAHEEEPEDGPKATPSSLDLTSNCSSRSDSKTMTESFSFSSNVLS
T2 sequence (P31645 whole entry): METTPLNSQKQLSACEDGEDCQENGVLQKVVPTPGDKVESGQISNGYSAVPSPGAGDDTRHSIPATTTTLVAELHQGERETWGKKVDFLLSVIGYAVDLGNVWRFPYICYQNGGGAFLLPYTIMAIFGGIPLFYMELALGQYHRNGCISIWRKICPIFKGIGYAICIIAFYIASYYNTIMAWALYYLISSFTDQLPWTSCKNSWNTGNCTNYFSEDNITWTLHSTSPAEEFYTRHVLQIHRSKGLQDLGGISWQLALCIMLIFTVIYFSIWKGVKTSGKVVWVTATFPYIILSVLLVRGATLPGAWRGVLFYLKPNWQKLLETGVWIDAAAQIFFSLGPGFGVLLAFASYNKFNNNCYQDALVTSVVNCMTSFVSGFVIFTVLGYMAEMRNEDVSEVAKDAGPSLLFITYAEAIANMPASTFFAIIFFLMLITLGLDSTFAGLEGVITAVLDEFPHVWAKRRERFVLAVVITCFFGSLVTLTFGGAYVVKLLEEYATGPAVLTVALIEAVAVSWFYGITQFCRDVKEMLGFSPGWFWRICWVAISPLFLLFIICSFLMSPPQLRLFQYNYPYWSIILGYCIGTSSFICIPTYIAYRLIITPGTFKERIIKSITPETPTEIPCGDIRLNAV

With `CC(OCC1(CCN(C)C)OCc2ccccc21)c1cc(C(F)(F)F)cc(C(F)(F)F)c1` (stereo not drawn) [Example 29] the pIC50 [1] was 7.00 to 11.00 and the pIC50 [2] was < 6.52.

Compound `CN(C)CCC1(COCc2cc(Cl)cc(-c3ccc(C#N)cc3)c2)OCc2ccccc21` (stereo not drawn) [Example 33] has a pIC50 [1] of 7.00 to 11.00 and a pIC50 [2] of 7.00 to 11.00.

`NCCCC1(COCc2cc(C(F)(F)F)cc(C(F)(F)F)c2)OCc2ccccc21` (stereo not drawn) [Example 37, 3-(1-((3,5-Bis(trifluoromethyl)benzyloxy)methyl)-1,3-dihydroisobenzofuran-1-yl)propan-1-amine] showed a pIC50 [1] of 7.00 to 11.00 and a pIC50 [2] of 7.00 to 11.00.
